From patent US20250059172A1, “INDAZOLE COMPOUND AND PHARMACEUTICAL” (NIPPON SHINYAKU CO., LTD., priority 2021, published 2025)
Counter-ions that a name gives are not always drawn.

Tests used:
human mPGES-1 = human mPGES-1 (Homo sapiens (Human), UniProt O14684); assay: mPGES-1 inhibitory activity test; type: biochemical; details: for inhibition at 0.01 µM: 10 nM test compound; for inhibition at 0.1 µM: 100 nM test compound; for IC50: microsomes of CHO-K1 cells expressing human mPGES-1, PGH2 1 μM, PGE2 by HTRF, read-out: mPGES-1 inhibition (IC50 nM)
Sequence of human mPGES-1 (O14684 whole entry): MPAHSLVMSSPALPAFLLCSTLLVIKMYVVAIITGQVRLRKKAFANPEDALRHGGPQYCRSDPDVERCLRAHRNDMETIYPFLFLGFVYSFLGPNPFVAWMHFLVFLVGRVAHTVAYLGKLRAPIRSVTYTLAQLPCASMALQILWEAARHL
Outline: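 PGE2 formation was quantified by HTRF and reported as percent inhibition at 10 and 100 nM compound or as IC50. The 60-second reaction at 4° C used 1 μM PGH2, after a 20-minute 4° C preincubation of compound (1% DMSO final) with glutathione-supplemented (2.5 mM, pH 7.4) microsomes. The microsomes were from transiently transfected CHO-K1 cells expressing human mPGES-1.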

human A549 cells = assay: Inhibition test of PGE2 production using human A549 cells; type: cell-based; details: IL-1β stimulated A549 cells, 24 h, PGE2 by HTRF, read-out: A549 cell inhibition of PGE2 production IC50
Outline: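 A549 cells were preincubated 60 min with compound in RPMI/3% FBS (0.1% DMSO final), then stimulated with IL-1β (5 ng/well) for 24 h at 37°C. PGE2 was measured by HTRF and PGF2a by EIA; activity was normalized to stimulated minus unstimulated controls, and IC50 derived.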

SMILES | inhibition at 0.01 µM (human mPGES-1) [%] | inhibition at 0.1 µM (human mPGES-1) [%] | IC50 (human A549 cells) [nM] | IC50 (human mPGES-1) [nM]
CC(C)(C)C(=O)NCc1ccc(C(F)(F)F)c(C(=O)Nc2cccc3c2cnn3-c2ccc(C(F)(F)F)nc2)c1 [Example 196, 5-{[(2,2-Dimethylpropanoyl)amino]methyl}-2-(trifluoromethyl)-N-{1-[6-(trifluoromethyl)pyridin-3-yl]-1H-indazol-4-yl}benzamide] | 60 | 78 | 2 | 
CC(C)(C)C(=O)NCc1ccc(C(F)(F)F)c(C(=O)Nc2cccc3c2cnn3-c2cccc(OC(F)(F)F)c2)c1 [Example 195, 5-{[(2,2-Dimethylpropanoyl)amino]methyl}-N-{1-[3-(trifluoromethoxy)phenyl]-1H-indazol-4-yl}-2-(trifluoromethyl)benzamide] | 65 | 84 | 0.8 | 
Cc1ccc(-n2ncc3c(NC(=O)c4cc(CNC(=O)C(C)(C)C)ccc4Cl)cccc32)cc1Cl [Example 53, 2-Chloro-N-[1-(3-chloro-4-methylphenyl)-1H-indazol-4-yl]-5-([(2,2-dimethylpropanoyl)amino]methyl)benzamide] |  |  | 1.8 | 2.6
CC(=O)NCc1ccc(Cl)c(C(=O)Nc2cccc3c2cnn3-c2ccc(C(F)(F)F)cc2)c1 [Example 18, 5-[(Acetylamino)methyl]-2-chloro-N-{1-[4-(trifluoromethyl)phenyl]-1H-indazol-4-yl}benzamide] |  |  | 52.4 | 84.7
O=C(Nc1cccc2c1cnn2-c1ccc(C(F)(F)F)nc1)c1cc(CNC(=O)C2CC2)ccc1Cl [Example 12, 2-Chloro-5-{[(cyclopropylcarbonyl)amino]methyl}-N-{1-[6-(trifluoromethyl)pyridin-3-yl]-1H-indazol-4-yl}benzamide] |  |  | 1.1 | 2.7
O=C(Nc1cccc2c1cnn2-c1ccc(F)cc1)c1cc(CNC(=O)C2(O)CC2)ccc1Cl [Example 154, 2-Chloro-N-[1-(4-fluorophenyl)-1H-indazol-4-yl]-5-({[(1-hydroxycyclopropyl)carbonyl]amino}methyl)benzamide] | 58 | 89 | 17.6 | 
Cc1ccccc1-n1ncc2c(NC(=O)c3cc(CNC(=O)C4CC4)ccc3Cl)cccc21 [Example 9, 2-Chloro-5-{[(cyclopropylcarbonyl)amino]methyl}-N-[1-(2-methylphenyl)-1H-indazol-4-yl]benzamide] |  |  | 4.1 | 2.2
CC(C)(CO)C(=O)NCc1ccc(Cl)c(C(=O)Nc2cccc3c2cnn3-c2ccc(C(F)(F)F)cc2)c1 [Example 28, 2-Chloro-5-{[(3-hydroxy-2,2-dimethylpropanoyl)amino]methyl}-N-{1-[4-(trifluoromethyl)phenyl]-1H-indazol-4-yl}benzamide] |  |  | 5.8 | 1.9
CC(C)(C)C(=O)NCc1ccc(Cl)c(C(=O)Nc2cccc3c2cnn3-c2cccc(OC(F)(F)F)c2)c1 [Example 71, 2-Chloro-5-{[(2,2-dimethylpropanoyl)amino]methyl}-N-{1-[3-(trifluoromethoxy)phenyl]-1H-indazol-4-yl}benzamide] |  |  | 0.6 | 0.1
COc1cc(-n2ncc3c(NC(=O)c4cc(CNS(=O)(=O)C5CC5)ccc4Cl)cccc32)ccn1 [Example 165, 2-Chloro-5-{[(cyclopropylsulfonyl)amino]methyl}-N-[1-(2-methoxypyridin-4-yl)-1H-indazol-4-yl]benzamide] | 80 | 96 | 8.6 | 
CC(C)(C)C(=O)NCc1ccc(Cl)c(C(=O)Nc2cccc3c2cnn3-c2cncc(C(F)(F)F)c2)c1 [Example 57, 2-Chloro-5-{[(2,2-dimethylpropanoyl)amino]methyl}-N-{1-[5-(trifluoromethyl)pyridin-3-yl]-1H-indazol-4-yl}benzamide] |  |  | 5.7 | 19.8
Cc1ccc(-n2ncc3c(NC(=O)c4cc(CNS(=O)(=O)C5CC5)ccc4Cl)cccc32)cc1Cl [Example 132, 2-Chloro-N-[1-(3-chloro-4-methylphenyl)-1H-indazol-4-yl]-5-{[(cyclopropylsulfonyl)amino]methyl}benzamide] | 86 |  | 1.5 | 
O=C(Nc1cccc2c1cnn2-c1cscn1)c1cc(CNC(=O)C2(C(F)(F)F)CC2)ccc1Cl [Example 189, 2-Chloro-N-[1-(1,3-thiazol-4-yl)-1H-indazol-4-yl]-5-[({[1-(trifluoromethyl)cyclopropyl]carbonyl}amino)methyl]benzamide] | 80 |  | 23.6 | 
Cc1ccc(-n2ncc3c(NC(=O)c4cc(CNS(=O)(=O)C5CC5)ccc4Cl)cccc32)nn1 [Example 253, 2-Chloro-5-{[(cyclopropylsulfonyl)amino]methyl}-N-[1-(6-methylpyridazin-3-yl)-1H-indazol-4-yl]benzamide] | 67 | 75 | 299 | 
CCC(O)(CC)C(=O)NCc1ccc(Cl)c(C(=O)Nc2cccc3c2cnn3-c2ccc(C(F)(F)F)cc2)c1 [Example 41, 2-Chloro-5-{[(2-ethyl-2-hydroxybutanoyl)amino]methyl}-N-{1-[4-(trifluoromethyl)phenyl]-1H-indazol-4-yl}benzamide] |  |  | 13.7 | 1

Now from value to compound:

inhibition at 0.01 µM (human mPGES-1) [%] | inhibition at 0.1 µM (human mPGES-1) [%] | IC50 (human A549 cells) [nM] | IC50 (human mPGES-1) [nM] | SMILES
 | 100 | 9.6 |  | CC(C)(CO)C(=O)NCc1ccc(Cl)c(C(=O)Nc2cccc3c2cnn3-c2cncc(C(F)(F)F)c2)c1 [Example 171, 2-Chloro-5-{[(3-hydroxy-2,2-dimethylpropanoyl)amino]methyl}-N-{1-[5-(trifluoromethyl)pyridin-3-yl]-1H-indazol-4-yl}benzamide]
53 | 92 | 1.2 |  | O=C(Nc1cccc2c1cnn2-c1cncc(C(F)(F)F)c1)c1cc(CNC(=O)C2(C(F)(F)F)CC2)ccc1Cl [Example 168, 2-Chloro-5-[({[1-(trifluoromethyl)cyclopropyl]carbonyl}amino)methyl]-N-{1-[5-(trifluoromethyl)pyridin-3-yl]-1H-indazol-4-yl}benzamide]
 |  | 1 | 1.1 | CC(C)(C)C(=O)NCc1ccc(Cl)c(C(=O)Nc2cccc3c2cnn3-c2ccc(C(F)(F)F)nc2)c1 [Example 77, 2-Chloro-5-{[(2,2-dimethylpropanoyl)amino]methyl}-N-{1-[6-(trifluoromethyl)pyridin-3-yl]-1H-indazol-4-yl}benzamide]
61 |  | 3.3 |  | COCC(=O)NCc1ccc(Cl)c(C(=O)Nc2cccc3c2cnn3-c2cccc(C(F)(F)F)c2)c1 [Example 222, 2-Chloro-5-{[(methoxyacetyl)amino]methyl}-N-{1-[3-(trifluoromethyl)phenyl]-1H-indazol-4-yl}benzamide]
 |  | 2.3 | 1.6 | O=C(Nc1cccc2c1cnn2-c1ccc(C(F)(F)F)cc1)c1cc(CNC(=O)C2(C(F)(F)F)CC2)ccc1Cl [Example 26, 2-Chloro-5-[({[1-(trifluoromethyl)cyclopropyl]carbonyl}amino)methyl]-N-{1-[4-(trifluoromethyl)phenyl]-1H-indazol-4-yl}benzamide]
 |  | 112 | 5 | CC(C)(C)C(=O)NCc1ccc(Cl)c(C(=O)Nc2cccc3c2cnn3-c2ccc(OC(F)(F)F)cc2)c1 [Example 51, 2-Chloro-5-{[(2,2-dimethylpropanoyl)amino]methyl}-N-{1-[4-(trifluoromethoxy)phenyl]-1H-indazol-4-yl}benzamide]
 |  | 1.7 | 1.4 | CC(C)(C)OC(=O)N1CCC(C(=O)NCc2ccc(Cl)c(C(=O)Nc3cccc4c3cnn4-c3ccc(C(F)(F)F)cc3)c2)CC1 [Example 36, tert-Butyl 4-{[4-chloro-3-({1-[4-(trifluoromethyl)phenyl]-1H-indazol-4-yl}carbamoyl)benzyl]carbamoyl}piperidine-1-carboxylate]
61 |  | 1.2 |  | O=C(Nc1cccc2c1cnn2-c1ccc(OC(F)(F)F)cc1)c1cc(CNC(=O)C2CCCC2)ccc1Cl [Example 115, 2-Chloro-5-{[(cyclopentylcarbonyl)amino]methyl}-N-{1-[4-(trifluoromethoxy)phenyl]-1H-indazol-4-yl}benzamide]
 |  | 41.4 | 18 | O=C(Nc1cccc2c1cnn2-c1ccc(C(F)(F)F)cc1)c1cc(CNC(=O)C2CCCO2)ccc1Cl (stereo not shown) [Example 33, N-[4-chloro-3-({1-[4-(trifluoromethyl)phenyl]-1H-indazol-4-yl}carbamoyl)benzyl]-tetrahydrofuran-2-carboxamide]
 |  | 0.9 | 9.9 | COc1cccc(-n2ncc3c(NC(=O)c4cc(CNC(=O)C(C)(C)C)ccc4Cl)cccc32)c1 [Example 49, 2-Chloro-5-{[(2,2-dimethylpropanoyl)amino]methyl}-N-[1-(3-methoxyphenyl)-1H-indazol-4-yl]benzamide]
 |  | 4.9 | 0.8 | COC(C)(C)c1ccc(-n2ncc3c(NC(=O)c4cc(CNC(=O)C(C)(C)C)ccc4Cl)cccc32)cn1 [Example 84, 2-Chloro-5-{[(2,2-dimethylpropanoyl)amino]methyl}-N-{1-[6-(2-methoxypropan-2-yl)pyridin-3-yl]-1H-Indazol-4-yl}benzamide hydrochloride]
85 | 86 | 1.9 |  | O=C(Nc1cccc2c1cnn2-c1ccc(C(F)(F)F)nc1)c1cc(CNC(=O)C2CCCC2)ccc1Cl [Example 174, 2-Chloro-5-{[(cyclopentylcarbonyl)amino]methyl}-N-{1-[6-(trifluoromethyl)pyridin-3-yl]-1H-indazol-4-yl}benzamide]
